Results published in PubChem BioAssay AID248 (DTP/NCI, 2004).
“And” between values parts separate entries of the source, which are not always exact repeats. Equal entries are not always repeated. Inconclusive results and toxic doses are left out. Cut-off read from the data, not from the text of the source: active = T/C of 150% or more; inactive = T/C below 125%.

Tested on: L1210 leukemia ip in BDF1 mice, survival T/C
Experiment: NCI In Vivo Anticancer Drug Screen. Data for tumor model L1210 Leukemia (intraperitoneal) in B6D2F1 (BDF1) mice
Conditions: endpoint: mean survival time, higher = longer survival
Method in brief: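 Ratio derived from survival: compound-dosed mice over vehicle-dosed mice, all bearing a transplantable tumor.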

[1] = dose: 50.0 mg/kg/injection, schedule: Q01DX001 (ip), vehicle: carboxymethylcellulose (CMC)
[2] = dose: 100.0 mg/kg/injection, schedule: Q04DX003 (ip), vehicle: Klucel (hydroxypropylcellulose) (HPC)
[3] = dose: 200.0 mg/kg/injection, schedule: Q04DX003 (ip), vehicle: Klucel (hydroxypropylcellulose) (HPC)
[4] = dose: 400.0 mg/kg/injection, schedule: Q04DX003 (ip), vehicle: Klucel (hydroxypropylcellulose) (HPC)
[5] = dose: 100.0 mg/kg/injection, schedule: Q04DX002 (ip), vehicle: Klucel (hydroxypropylcellulose) (HPC)
[6] = dose: 200.0 mg/kg/injection, schedule: Q04DX002 (ip), vehicle: Klucel (hydroxypropylcellulose) (HPC)
[7] = dose: 400.0 mg/kg/injection, schedule: Q04DX002 (ip), vehicle: Klucel (hydroxypropylcellulose) (HPC)
[8] = dose: 100.0 mg/kg/injection, schedule: Q01DX001 (ip), vehicle: carboxymethylcellulose (CMC)
[9] = dose: 200.0 mg/kg/injection, schedule: Q01DX001 (ip), vehicle: carboxymethylcellulose (CMC)

Measured: T/C

O=C/C(Br)=C(\Br)C(=O)O
inactive: dose: 12.5 mg/kg/injection, schedule: Q01DX001 (ip), vehicle: carboxymethylcellulose (CMC) 93 % of control | dose: 12.5 mg/kg/injection, schedule: Q01DX009 (ip), vehicle: carboxymethylcellulose (CMC) 95 % of control | dose: 12.5 mg/kg/injection, schedule: Q04DX002 (ip), vehicle: carboxymethylcellulose (CMC) 97 % of control | dose: 12.5 mg/kg/injection, schedule: Q04DX003 (ip), vehicle: carboxymethylcellulose (CMC) 97 % of control | dose: 25.0 mg/kg/injection, schedule: Q01DX001 (ip), vehicle: carboxymethylcellulose (CMC) 93 % of control | dose: 25.0 mg/kg/injection, schedule: Q01DX009 (ip), vehicle: carboxymethylcellulose (CMC) 98 % of control and 92 % of control | dose: 25.0 mg/kg/injection, schedule: Q04DX002 (ip), vehicle: carboxymethylcellulose (CMC) 93 % of control and 98 % of control | dose: 25.0 mg/kg/injection, schedule: Q04DX003 (ip), vehicle: carboxymethylcellulose (CMC) 103 % of control | [1] 106 % of control | dose: 50.0 mg/kg/injection, schedule: Q01DX009 (ip), vehicle: carboxymethylcellulose (CMC) 96 % of control | dose: 50.0 mg/kg/injection, schedule: Q04DX002 (ip), vehicle: carboxymethylcellulose (CMC) 90 % of control

CCCCN1C(=O)c2ccccc2C1=O
inactive: dose: 100.0 mg/kg/injection, schedule: Q04DX003 (ip), vehicle: carboxymethylcellulose (CMC) 102 % of control | dose: 200.0 mg/kg/injection, schedule: Q04DX003 (ip), vehicle: carboxymethylcellulose (CMC) 93 % of control | dose: 400.0 mg/kg/injection, schedule: Q04DX003 (ip), vehicle: carboxymethylcellulose (CMC) 101 % of control

CCOC(=O)C(C)(C)CN(CC(C)(C)C(=O)OCC)c1ccccc1
inactive: dose: 100.0 mg/kg/injection, schedule: Q04DX003 (ip), vehicle: saline with Tween-80 106 % of control | dose: 200.0 mg/kg/injection, schedule: Q04DX003 (ip), vehicle: saline with Tween-80 106 % of control | dose: 400.0 mg/kg/injection, schedule: Q04DX003 (ip), vehicle: saline with Tween-80 104 % of control

O=C(Nc1ccc(Cl)c(Cl)c1)Oc1ccc(-c2ccccc2)cc1
inactive: dose: 100.0 mg/kg/injection, schedule: Q01DX009 (ip), vehicle: Klucel (hydroxypropylcellulose) (HPC) 93 % of control | [2] 87 % of control | dose: 200.0 mg/kg/injection, schedule: Q01DX009 (ip), vehicle: Klucel (hydroxypropylcellulose) (HPC) 100 % of control | [3] 92 % of control | dose: 400.0 mg/kg/injection, schedule: Q01DX009 (ip), vehicle: Klucel (hydroxypropylcellulose) (HPC) 90 % of control | [4] 88 % of control

CCC1(CCCCCBr)OCCO1
inactive: [5] 101 % of control | [6] 108 % of control | [7] 104 % of control

CN(C)C(=S)SSSSC(=S)N(C)C
inactive: [5] 108 % of control | [6] 108 % of control | [7] 99 % of control and 90 % of control

O=C1C(Cl)=C(Nc2ccc3cn[nH]c3c2)C(=O)c2ccccc21
inactive: [1] 102 % of control | [8] 100 % of control | [9] 102 % of control

COc1ccc(OC)c(N(CCN2C(=O)c3ccccc3C2=O)C(=O)CCl)c1
inactive: dose: 25.0 mg/kg/injection, schedule: Q04DX002 (ip), vehicle: Klucel (hydroxypropylcellulose) (HPC) 97 % of control | dose: 50.0 mg/kg/injection, schedule: Q04DX002 (ip), vehicle: Klucel (hydroxypropylcellulose) (HPC) 90 % of control | [5] 97 % of control and 91 % of control

COC1OCCCC1Br (stereo not given)
inactive: dose: 100.0 mg/kg/injection, schedule: Q01DX001 (ip), vehicle: saline 91 % of control | dose: 200.0 mg/kg/injection, schedule: Q01DX001 (ip), vehicle: saline 102 % of control | dose: 400.0 mg/kg/injection, schedule: Q01DX001 (ip), vehicle: saline 107 % of control

O=C(O)C(=O)Cc1ccc(O)cc1
inactive: [1] 105 % of control | [8] 96 % of control | [9] 91 % of control | dose: 400.0 mg/kg/injection, schedule: Q01DX001 (ip), vehicle: carboxymethylcellulose (CMC) 100 % of control

S=C(NCc1ccccc1)[S][Sn]([c]1ccccc1)([c]1ccccc1)[c]1ccccc1
inactive: dose: 5.0 mg/kg/injection, schedule: Q01DX001 (ip), vehicle: steriod suspending solution 101 % of control | dose: 10.0 mg/kg/injection, schedule: Q01DX001 (ip), vehicle: steriod suspending solution 103 % of control | dose: 20.0 mg/kg/injection, schedule: Q01DX001 (ip), vehicle: steriod suspending solution 93 % of control | dose: 40.0 mg/kg/injection, schedule: Q01DX001 (ip), vehicle: steriod suspending solution 113 % of control | dose: 80.0 mg/kg/injection, schedule: Q01DX001 (ip), vehicle: steriod suspending solution 104 % of control

CCC(C)C(NC(=O)C(CC(C)C)N(C)C)C(=O)N1CCC2Oc3ccc(cc3)/C=C\NC(=O)C(Cc3ccccc3)NC(=O)C21 (stereo not given)
inactive: [2] 96 % of control | [3] 108 % of control | [4] 94 % of control
